{"source": "patent EP0412158A1", "about": "“ONCOSTATIC DRUG” (priority 1987, dated 1988)", "key": {"MM-46 breast cancer [1]": {"test_system": "MM-46 breast cancer", "format": "in vivo, female C3H/He mice", "conditions": "5 mg/kg, ip × 9"}, "[2]": {"test": "Methyl cholanthrene A tumor, evaluation by weight of tumor (Examples 13 to 16)", "format": "in vivo, female BALB/C mice", "conditions": "mouse, in vivo, ip; read-out: largest allowable dose", "procedure": "Compound E, an alkali metal salt of polymolybdic acid (Example 13), and other compounds (Compounds F to H) mentioned above were severally dissolved in distilled water to obtain aqueous solutions containing the compounds in a fixed concentration of 10 mg/ml. These aqueous solutions were administered to female BALB/C mice (five weeks old) to which methyl cholanthrene A tumor had been transplanted to test the compounds for antineoplastic activity. To be morespecific, the methyl cholanthrene A was transplanted to the mice in a ratio of 1.0 x 10^5 cells per mouse and the aqueous solution was continuously administered (at a dose of 100 mg/kg of body weight) for nine days by intraperitoneal injection. On elapse of 14 days after the stop of the administration, the tumors in the mice were weighed. For comparison, mice to which the aqeuous solution was not administered and the mice to which aminonitrosourea was administered were similarly tested."}, "[3]": {"test_system": "methyl cholanthrene A tumor", "test": "Methyl cholanthrene A tumor, evaluation by weight of tumor (Examples 13 to 16)", "format": "in vivo, female BALB/C mice", "conditions": "5 mg/kg"}, "[4]": {"test": "Antineoplastic activity against transplanted methyl cholanthrene A tumor, evaluation by size of tumor (Examples 1 to 6)", "format": "in vivo, female BALB/C mice", "conditions": "mouse, in vivo, ip", "procedure": "(§1) By dissolving alkylammonium salt of polymolybdic acid [NH3C3H7(iso)]s [Mo7O24] • 3H2O (Compound A) and other compounds (Compounds B to D) severally in distilled water, aqueous solutions containing the compounds in a fixed concentration of 10 mg/ml were obtained. These aqueous solutions were administered to female BALB/C mice (five weeks old) to which methyl cholanthrene A tumor had been transplanted to test the compounds for antineoplastic activity. To be specific, methyl cholanthrene A was transplanted to the mice in a ratio of 1.0 x 10^5 cells per mouse and the aqueous solutions were continuously administered to the mice by intraperitoneal injection ([…]) for nine days. On elapse of 14 days following the start of the administration, the tumors in the mice were measured. For comparison, mice to which no antineoplastic .drug was administered and mice to which aminonitroso urea was administered were tested by following the procedure described above."}, "[5]": {"test_system": "methyl cholanthrene A tumor", "test": "Antineoplastic activity against transplanted methyl cholanthrene A tumor, evaluation by size of tumor (Examples 1 to 6)", "format": "in vivo, female BALB/C mice", "conditions": "5 mg/kg, ip×9; for Change in body weight: body weight 13 days after transplantation; for T/control: tumor weight", "procedure": "as §1"}, "methyl cholanthrene A [6]": {"test_system": "methyl cholanthrene A", "test": "Methyl cholanthrene A tumor, evaluation by elongation of period of survival (Examples 31, 34 and 35)", "format": "in vivo, female BALB/C mice", "procedure": "The active compounds, M to 0, mentioned above were severally dissolved in distilled water to obtain aqueous solutions containing the compounds in a fixed concentration of 10 mg/ml. To be specific, to female BALB/C mice (five weeks old) to which methyl cholanthrene A had been transplanted in a ratio of 1.0 x 10^5 cells per mouse, […] for 9 consecutive days to determine the mice's periods of survival. For comparison, mice to which no aqueous solution was administered and mice to which aminonitrosourea was administered were similarly tested."}, "methyl cholanthrene A [7]": {"test_system": "methyl cholanthrene A", "test": "Methyl cholanthrene A tumor, evaluation by elongation of period of survival (Examples 17 to 20)", "format": "in vivo, female BALB/C mice", "conditions": "5 mg/kg ×9"}, "[8]": {"test": "Methyl cholanthrene A tumor, evaluation by size of tumor (Examples 31 to 33)", "format": "in vivo, female BALB/C mice", "conditions": "mouse, in vivo, ip; read-out: largest allowable dose", "procedure": "(§2) A heteropoly acid salt, Na5[IM06O24]•34H2O (Compound M), and other compounds (Compounds N and O ) were severally dissolved in distilled water to obtain aqueous solutions containing the salts in a fixed concentration of 10 mg/ml. To female BALB/C mice (five weeks old) to which methyl cholanthrene A tumor had been transplanted, the aqueous solutions were administered to test the compounds for antineoplastic activity. To be specific, the methyl cholanthrene A was transplanted to the mice at a ratio of 1.0 x 10^5 cells per mouse and the aqueous solutions were administered ([…]) for 9 consecutive days by intraperitoneal injection. On elapse of 14 and 21 days after the stop of the administration, the sizes of tumors in the mice were measured. For comparison, mice to which no aqueous solution was administered and mice to which aminonitrosourea was administered were similarly tested."}, "[9]": {"test_system": "methyl cholanthrene A tumor", "test": "Methyl cholanthrene A tumor, evaluation by size of tumor (Examples 31 to 33)", "format": "in vivo, female BALB/C mice", "procedure": "as §2"}, "[10]": {"test": "MM-46 breast cancer, evaluation by size of tumor (Examples 21 to 24)", "format": "in vivo, female C3H/He mice", "conditions": "mouse, in vivo, ip; read-out: largest allowable dose"}, "MM-46 breast cancer [11]": {"test_system": "MM-46 breast cancer", "test": "MM-46 breast cancer, evaluation by size of tumor (Examples 21 to 24)", "format": "in vivo, female C3H/He mice", "conditions": "5 mg/kg"}, "methyl cholanthrene A [12]": {"test_system": "methyl cholanthrene A", "test": "Methyl cholanthrene A tumor, evaluation by extension of period of survival (Examples 7 to 11)", "format": "in vivo, female BALB/C mice", "conditions": "5 mg/kg; for Average number of days of survival / Number of toxically killed mice/total number of mice / T/control: ip×9; for Change in body weight: ip×9, D1~D9; for T/control: days of survival", "procedure": "The aforementioned compounds, A to D, were severally dissolved in distilled water to obtain aqueous solutions containing the compounds in a fixed concentration of 10 mg/ml. To the female BALB/C mice (five weeks old) to which methyl cholanthrene A had been transplanted in a ratio of 1.0 x 10^5 cells per mouse, […] to determine the mices' periods of survival. For comparison, mice to which no antineoplastic drug was administered and mice to which aminonitroso urea was administered were similarly tested."}}}
{"smiles": "Cc1ncc(CNC(=O)N(CCCl)N=O)c(N)n1", "note": "[reference compound]", "values": [{"measurement": "Average number of days of survival", "setting": "MM-46 breast cancer [1]", "value": "29.1±2.1(8) days"}, {"measurement": "Average weight of tumor after 14 days", "setting": "MM-46 breast cancer [1]", "value": "1364.3 ± 200.0", "unit": "mg"}, {"measurement": "Ratio of elongation of life (5)", "setting": "MM-46 breast cancer [1]", "value": 76.4}, {"measurement": "MTD", "setting": "[2]", "value": 5, "unit": "mg/kg"}, {"measurement": "Average weight of tumor", "setting": "[3]; ip × 9", "value": "1151.1 ± 162.7", "unit": "mg"}, {"measurement": "Number of tumorless mice /total number of mice", "setting": "[3]; ip × 9", "value": "0/8"}, {"measurement": "T/control", "setting": "[3]; ip×9, tumor weight", "value": 0.447}, {"measurement": "Change in body weight", "setting": "[3]; ip×9 D1-D9, body weight 13 days after tumor transplantation", "value": "+1,58 g"}, {"measurement": "MTD", "setting": "[4]", "value": 5, "unit": "mg/kg"}, {"measurement": "Average weight of tumor", "setting": "[5]; No. 1", "value": "1151.1 ± 162.7", "unit": "mg"}, {"measurement": "Number of tumorless mice /total number of mice", "setting": "[5]; No. 1", "value": "0/8"}, {"measurement": "Change in body weight", "setting": "[5]; No. 1", "value": "+1,58 (D1~D9) g"}, {"measurement": "T/control", "setting": "[5]; No. 1", "value": 0.430}, {"measurement": "Average weight of tumor", "setting": "[5]; No. 3", "value": "1151.1 ± 162.7", "unit": "mg"}, {"measurement": "Number of tumorless mice /total number of mice", "setting": "[5]; No. 3", "value": "0/8"}, {"measurement": "Change in body weight", "setting": "[5]; No. 3", "value": "+1,58 (D1~D9) g"}, {"measurement": "T/control", "setting": "[5]; No. 3", "value": 0.430}, {"measurement": "Average number of days of survival ±SE", "setting": "methyl cholanthrene A [6]; 2.5 mg/kg, ip × 9 (D1~D9)", "value": "31.13±1.14(8) days"}, {"measurement": "ILS", "setting": "methyl cholanthrene A [6]; 2.5 mg/kg, ip × 9 (D1~D9)", "value": 18, "unit": "%"}, {"measurement": "Average number of days of survival ±SE", "setting": "methyl cholanthrene A [6]; 7.5 mg/kg, ip × 9", "value": "36.67±1.07(9) days"}, {"measurement": "ILS", "setting": "methyl cholanthrene A [6]; 7.5 mg/kg, ip × 9", "value": 47.3, "unit": "%"}, {"measurement": "Number of mice of no tumor/total number of mice", "setting": "methyl cholanthrene A [6]; 7.5 mg/kg, ip × 9, observed 60 days after transplantation", "value": "0/9"}, {"measurement": "Average number of days of survival", "setting": "methyl cholanthrene A [7]", "value": "28.0±3.1(9) days"}, {"measurement": "Number of toxically killed mice/total number of mice", "setting": "methyl cholanthrene A [7]", "value": "0/8"}, {"measurement": "Ratio of prolonging life", "setting": "methyl cholanthrene A [7]", "value": 24.4, "unit": "%"}, {"measurement": "MTD", "setting": "[8]", "value": 7.5, "unit": "mg/kg"}, {"measurement": "Average weight of tumor after elapse of 14 days ± SE", "setting": "[9]; 2.5 mg/kg, ip × 9 (D1~D9)", "value": "347.9 ± 63.8", "unit": "mg"}, {"measurement": "T/C", "setting": "[9]; 2.5 mg/kg, ip × 9 (D1~D9), tumor weight after 14 days", "value": 0.405}, {"measurement": "T/C", "setting": "[9]; 7.5 mg/kg, ip × 9, tumor weight after 14 days", "value": 0.367}, {"measurement": "T/C", "setting": "[9]; 7.5 mg/kg, ip × 9, tumor weight after 21 days", "value": 0.444}, {"measurement": "MTD", "setting": "[10]", "value": 5, "unit": "mg/kg"}, {"measurement": "Average weight of tumor", "setting": "MM-46 breast cancer [11]; ip × 9", "value": "1364.3 ± 200.0", "unit": "mg"}, {"measurement": "Number of tumorless mice /total number of mice", "setting": "MM-46 breast cancer [11]; ip × 9", "value": "0/8"}, {"measurement": "T/control", "setting": "MM-46 breast cancer [11]; ip×9, tumor weight", "value": 0.473}, {"measurement": "Average number of days of survival", "setting": "methyl cholanthrene A [12]; No. 1", "value": "35.8 ± 1.4", "unit": "days"}, {"measurement": "Number of toxically killed mice/total number of mice", "setting": "methyl cholanthrene A [12]; No. 1", "value": "0/8"}, {"measurement": "Change in body weight", "setting": "methyl cholanthrene A [12]; No. 1", "value": "+1.58 g"}, {"measurement": "T/control", "setting": "methyl cholanthrene A [12]; No. 1", "value": 138.0}, {"measurement": "Average number of days of survival", "setting": "methyl cholanthrene A [12]; No. 2", "value": "28.0±3.1(9) days"}, {"measurement": "Number of toxically killed mice/total number of mice", "setting": "methyl cholanthrene A [12]; No. 2", "value": "0/8"}, {"measurement": "Change in body weight", "setting": "methyl cholanthrene A [12]; No. 2", "value": "+1.58 g"}, {"measurement": "T/control", "setting": "methyl cholanthrene A [12]; No. 2", "value": 124.5}]}
